These results are taken from patent US9255100B2 (BAYER INTELLECTUAL PROPERTY GMBH, priority 2010, dated 2016).

SMILES strings stand for the structures.

The target in the assay is T1, N-terminally GST-tagged human full length recombinant Mps-1 kinase (Homo sapiens, UniProt P33981).
T1 construct: N-terminally GST-tagged human full length recombinant Mps-1 kinase; purchased Invitrogen, Karslruhe, Germany PV4071
T1 sequence (P33981 1-857): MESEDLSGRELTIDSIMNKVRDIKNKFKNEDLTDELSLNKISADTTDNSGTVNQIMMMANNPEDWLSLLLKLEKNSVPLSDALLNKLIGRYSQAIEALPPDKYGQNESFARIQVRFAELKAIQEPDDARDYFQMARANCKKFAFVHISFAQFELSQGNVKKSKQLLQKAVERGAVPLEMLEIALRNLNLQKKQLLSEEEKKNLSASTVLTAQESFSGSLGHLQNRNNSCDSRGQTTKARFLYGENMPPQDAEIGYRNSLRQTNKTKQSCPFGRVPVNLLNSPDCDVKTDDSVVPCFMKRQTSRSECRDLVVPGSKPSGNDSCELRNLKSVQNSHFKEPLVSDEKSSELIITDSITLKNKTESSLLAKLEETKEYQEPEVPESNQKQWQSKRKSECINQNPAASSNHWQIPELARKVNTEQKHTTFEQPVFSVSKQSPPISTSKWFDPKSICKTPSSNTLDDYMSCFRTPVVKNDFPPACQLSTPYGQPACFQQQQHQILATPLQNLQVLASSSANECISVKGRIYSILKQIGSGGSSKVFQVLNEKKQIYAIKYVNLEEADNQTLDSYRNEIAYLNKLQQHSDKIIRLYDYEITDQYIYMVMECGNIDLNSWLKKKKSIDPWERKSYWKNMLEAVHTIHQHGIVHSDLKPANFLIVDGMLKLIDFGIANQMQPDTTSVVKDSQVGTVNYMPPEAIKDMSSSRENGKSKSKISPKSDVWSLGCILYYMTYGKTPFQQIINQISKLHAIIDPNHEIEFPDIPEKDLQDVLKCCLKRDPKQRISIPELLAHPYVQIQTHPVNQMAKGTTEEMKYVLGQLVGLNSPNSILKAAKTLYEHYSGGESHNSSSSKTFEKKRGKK
As to the kind of experiment: Mps-1 kinase assay (TR-FRET). The conditions noted are these: Mps1 IC50 [nM], 10 μM ATP, 1 μM peptide substrate, 60 min at 22° C. Format: biochemical. A digest of the protocol: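 TR-FRET signal between a Europium anti-phospho-Ser/Thr antibody and streptavidin-XLent reported phosphorylation of a biotinylated peptide by GST-tagged full-length Mps-1. Enzyme was near 1 nM final, chosen per lot for linearity.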
For the compound `Cc1cc(-c2cnc3c(NCC(C)(C)O)cc(SCCN4CCOCC4)nn23)ccc1C(=O)NC1CC1` [Example 239, N-cyclopropyl-4-(8-[(2-hydroxy-2-methylpropyl)amino]-6-{[2-(morpholin-4-yl)ethyl]sulfanyl}imidazo[1,2-b]pyridazin-3-yl)-2-methylbenzamide], the half-inhibitory concentration (IC50) worked out at 25.5 nM.
Regarding `CNc1cc(N(C)c2ccccc2O)nn2c(-c3ccc(C(=O)NC4CC4)c(C)c3)cnc12` [Example 532, N-cyclopropyl-4-{6-[(2-hydroxyphenyl)(methyl)amino]-8-(methylamino)imidazo[1,2-b]pyridazin-3-yl}-2-methylbenzamide], the 50% inhibitory concentration (IC50) came to 0.2 nM.
Consider `Cc1cc(-c2cnc3c(NCC(C)(C)O)cc(-c4c(C)noc4C)nn23)ccc1C(=O)NC1CC1` [Example 159, N-cyclopropyl-4-{6-(3,5-dimethyl-1,2-oxazol-4-yl)-8-[(2-hydroxy-2-methylpropyl)amino]imidazo[1,2-b]pyridazin-3-yl}-2-methylbenzamide], for which the IC50 is 14.8 nM.
As to `c1cc(-c2cc(NC[C@@H]3CCCO3)c3ncc(-c4ccc(-c5cnc(C6CC6)[nH]5)cc4)n3n2)ccn1` [Example 4, 3-[4-(2-Cyclopropyl-1H-imidazol-5-yl)phenyl]-6-(pyridin-4-yl)-N-[(2S)-tetrahydrofuran-2-ylmethyl]imidazo[1,2-b]pyridazin-8-amine], the half-maximal inhibitory concentration (IC50) is 20.6 nM.
As to `COc1cccc(Oc2cc(NCCC(F)(F)F)c3ncc(-c4ccc(C(=O)NC5CC5)c(C)c4)n3n2)c1` [Example 225, N-cyclopropyl-4-{6-(3-methoxyphenoxy)-8-[(3,3,3-trifluoropropyl)amino]imidazo[1,2-b]pyridazin-3-yl}-2-methylbenzamide], the IC50 was found to be 0.2 nM.
Take `CC=Cc1cc(NCC(C)(C)O)c2ncc(-c3ccc(-c4cnc(C5CC5)[nH]4)cc3)n2n1` (mixture of isomers) [Example 2, 1-({3-[4-(2-Cyclopropyl-1H-imidazol-5-yl)phenyl]-6-[(1E/Z)-prop-1-en-1-yl]imidazo[1,2-b]pyridazin-8-yl}amino)-2-methylpropan-2-ol]: the IC50 worked out at 90.5 nM.
`Cc1ccc(F)c(Nc2cc(NCCC(F)(F)F)c3ncc(-c4ccc(C(=O)NC5CC5)c(C)c4)n3n2)c1` [Example 367, N-cyclopropyl-4-{6-[(2-fluoro-5-methylphenyl)amino]-8-[(3,3,3-trifluoropropyl)amino]imidazo[1,2-b]pyridazin-3-yl}-2-methylbenzamide]: the half-inhibitory concentration (IC50) stood at 0.1 nM.
Consider `Cc1cc(-c2cnc3c(NCc4ccn(C)n4)cc(Oc4cccc(F)c4)nn23)ccc1C(=O)NC1CC1` [Example 488, N-cyclopropyl-4-[6-(3-fluoro-phenoxy)-8-{[(1-methyl-1H-pyrazol-3-yl)methyl]amino}imidazo[1,2-b]pyridazin-3-yl]-2-methylbenzamide], for which the IC50 is 0.1 nM.
The same measure for `CC(C)CNc1cc(-c2ccccc2O)nn2c(-c3ccc(C(=O)NC4CC4)cc3)cnc12` [Example 139, N-cyclopropyl-4-{6-(2-hydroxyphenyl)-8-[(2-methylpropyl)amino]imidazo[1,2-b]pyridazin-3-yl}benzamide]: 3.7 nM; for `Cc1cc(-c2cnc3c(NCC(C)(C)O)cc(Oc4cccc(Cl)c4)nn23)ccc1C(=O)NC1CC1` [Example 85, 4-{6-(3-Chlorophenoxy)-8-[(2-hydroxy-2-methylpropyl)amino]imidazo[1,2-b]pyridazin-3-yl}-N-cyclopropyl-2-methylbenzamide]: 0.2 nM; for `COc1ccccc1Nc1cc(NCCC(F)(F)F)c2ncc(-c3ccc(C(=O)NC4CC4)c(C)c3)n2n1` [Example 388, N-cyclopropyl-4-{6-[(2-methoxyphenyl)amino]-8-[(3,3,3-trifluoropropyl)amino]imidazo[1,2-b]pyridazin-3-yl}-2-methylbenzamide]: 0.4 nM.
For `COc1ccccc1Sc1cc(NCC(C)(C)O)c2ncc(-c3ccc(C(=O)NC4CC4)c(C)c3)n2n1` [Example 73B, N-cyclopropyl-4-{8-[(2-hydroxy-2-methylpropyl)amino]-6-[(2-methoxyphenyl)sulfanyl]imidazo[1,2-b]pyridazin-3-yl}-2-methylbenzamide] the value was 3.8 nM; for `COc1ccc(Oc2cc(NCCS(C)(=O)=O)c3ncc(-c4ccc(C(=O)NC5CC5)c(C)c4)n3n2)c(F)c1` [Example 519, N-cyclopropyl-4-[6-(2-fluoro-4-methoxyphenoxy)-8-{[2-(methylsulfonyl)ethyl]amino]imidazo [1,2-b]pyridazin-3-yl]-2-methylbenzamide], 0.1 nM; for `Cc1cc(F)cc(Oc2cc(NCC3CCSCC3)c3ncc(-c4ccc(C(=O)NC5CC5)c(C)c4)n3n2)c1` [Example 282, N-cyclopropyl-4-{6-(3-fluoro-5-methylphenoxy)-8-[(tetrahydro-2H-thiopyran-4-ylmethyl)amino]imidazo[1,2-b]pyridazin-3-yl}-2-methylbenzamide], 0.4 nM.
The same measure for `CC(C)CNc1cc(-c2cccc(C(=O)NC(C)C)c2)nn2c(-c3ccc(C(=O)NC4CC4)cc3)cnc12` [Example 134, 3-{3-[4-(Cyclopropylcarbamoyl)phenyl]-8-[(2-methylpropyl)amino]imidazo[1,2-b]pyridazin-6-yl}-N-(propan-2-yl) benzamide]: below 1 nM; for `Cc1cc(-c2cnc3c(NCC(C)(C)O)cc(Nc4cccc(Cl)c4)nn23)ccc1C(=O)NC1CC1` [Example 355, 4-{6-[(3-chlorophenyl)amino]-8-[(2-hydroxy-2-methylpropyl)amino]imidazo[1,2-b]pyridazin-3-yl}-N-cyclopropyl-2-methylbenzamide]: 0.9 nM.
Take `Cc1cc(F)cc(Sc2cc(NCC3CCSCC3)c3ncc(-c4ccc(C(=O)NC5CC5)c(C)c4)n3n2)c1` [Example 286, N-cyclopropyl-4-{6-[(3-fluoro-5-methylphenyl)sulfanyl]-8-[(tetrahydro-2H-thiopyran-4-ylmethyl)amino]imidazo[1,2-b]pyridazin-3-yl}-2-methylbenzamide]: the half-maximal inhibitory concentration (IC50) stood at 0.4 nM.
For the compound `Cc1cc(-c2cnc3c(NCC(C)(C)O)cc(Sc4cccc(OC(C)C)c4)nn23)ccc1C(=O)NC1CC1` [Example 271], the half-maximal inhibitory concentration (IC50) worked out at 1 nM.
Take `C=C(c1ccccc1)c1cc(NCCC(F)(F)F)c2ncc(-c3ccc(C(=O)NC4CC4)c(C)c3)n2n1` [Example 482, N-cyclopropyl-2-methyl-4-{6-(1-phenylethenyl)-8-[(3,3,3-trifluoropropyl)amino]imidazo[1,2-b]pyridazin-3-yl}benzamide]: the IC50 came out at 0.6 nM.
For `Cc1cc(-c2cnc3c(NCCC(F)(F)F)cc(Nc4ccc(F)cc4)nn23)ccc1C(=O)NC1CC1` [Example 358, N-cyclopropyl-4-{6-[(4-fluorophenyl)amino]-8-[(3,3,3-trifluoropropyl)amino]imidazo[1,2-b]pyridazin-3-yl}-2-methylbenzamide] the value was 0.1 nM; for `Cc1cc(-c2cnc3c(NCCCS(=O)(=O)O)cc(Oc4cccc(F)c4)nn23)ccc1C(=O)NC1CC1` [Example 547, 3-({3-[4-(cyclopropylcarbamoyl)-3-methylphenyl]-6-(3-fluorophenoxy)imidazo[1,2-b]pyridazin-8-yl}amino)propane-1-sulfonic acid], 0.2 nM.
